US20240415819A1, “MACROCYCLIC COMPOUNDS AS PROTEASOME SUBUNIT BETA TYPE-5 INHIBITORS” (Lead Discovery Center GmbH, priority 2021, published 2024)

Experiments:
[1] = target: T1, β5 subunit of the human immunoproteasome (IPS) (Homo sapiens, UniProt P28062); test: β5 inhibition assay, human immunoproteasome (Suc-LLVY-AMC); type: biochemical; conditions: IC50 class, Suc-LLVY-AMC substrate
T1 construct: purchased Boston Biochem E-370
Method in brief: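 β5 activity is read as liberated AMC fluorescence (355/460 nm) after 4 h dark reaction at RT with 22.6 μM Suc-LLVY-AMC, stopped by 1 μM bortezomib. Beforehand, 1 nM human IPS and compound sat 10 min at RT in HEPES pH 7.5 buffer containing NaCl, 0.02% SDS and DTT.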

HT-29 cells = test: CellTiter-Glo luminescent cell viability assay with HT-29 cells (72h incubation); type: cell-based, human; conditions: Homo sapiens, HT-29, HT29 cells, read-out: CTG HT29
Method in brief: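 Viability read as CellTiter-Glo luminescence after 72 h compound exposure, with 10 μM staurosporine and DMSO as control wells. Seeding 400 cells per well, compound added 24 h post-plating; IC50 from curve fitting.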

hPMBC = test: Chymotrypsin-like ProteasomeGlo assay in hPBMC; type: cell-based; conditions: Homo sapiens; read-out: Pglo hPBMC
Method in brief: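 IC50 derived from luminescent chymotrypsin-like proteasome activity (Suc-LLVY-Glo substrate plus luciferin detection reagent). Measured after 105 min compound exposure at 37 °C, 5% CO2. Cells were human B cells purified from buffy-coat PBMC.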

SMILES | IC50 [1] | IC50 (HT-29 cells) | IC50 (hPMBC)
CC(=O)N[C@H]1CC(=O)N2CCCC(CCOc3ccc(C)c(c3)CNC(=O)C(c3cnn(Cc4ccccc4)c3)NC1=O)C2 (stereo partly drawn) [Compound 565, N-((12S)-9-(1-benzyl-1H-pyrazol-4-yl)-5^4-methyl-8,11,14-trioxo-4-oxa-7,10-diaza-1(3,1)-piperidina-5(1,3)-benzenacyclotetradecaphane-12-yl)acetamide] | < 100 nM | < 100 nM | 100 to 500 nM
CCC(C(=O)N[C@H]1CC(=O)N2CCCC(CCOc3ccc(C)c(c3)CNC(=O)[C@H](CCc3ccccc3)NC1=O)C2)c1ccc(OC)c(OC)c1 (stereo partly drawn) [Compound 64, 2-(3,4-dimethoxyphenyl)-N-((9S,12S)-5^4-methyl-8,11,14-trioxo-9-phenethyl-4-oxa-7,10-diaza-1(3,1)-piperidina-5(1,3)-benzenacyclotetradecaphane-12-yl)butanamide] | < 100 nM | < 100 nM | < 100 nM
Cc1ccc2cc1CNC(=O)[C@H](CCc1ccccc1)NC(=O)[C@@H](NC(=O)OCC1(C)COC1)CC(=O)N1CCCC(CCO2)C1 (stereo partly drawn) [Compound 293, (3-methyloxetan-3-yl)methyl ((9S,12S)-5^4-methyl-8,11,14-trioxo-9-phenethyl-4-oxa-7,10-diaza-1(3,1)-piperidina-5(1,3)-benzenacyclotetradecaphane-12-yl)carbamate] | < 100 nM | < 100 nM | < 100 nM

Further lines, results first:

IC50 [1] | IC50 (HT-29 cells) | IC50 (hPMBC) | SMILES
< 100 nM | < 100 nM | 1000 to 5000 nM | Cc1ccc2cc1CNC(=O)[C@H](CCc1ccccc1)NC(=O)[C@H](NC(=O)OCc1ccccc1)CC(=O)N1CCC[C@H](CCO2)C1 [Compound 291, benzyl ((13R,9S,12R)-5^4-methyl-8,11,14-trioxo-9-phenethyl-4-oxa-7,10-diaza-1(3,1)-piperidina-5(1,3)-benzenacyclotetradecaphane-12-yl)carbamate]
< 100 nM | < 100 nM | < 100 nM | Cc1ccc2cc1CNC(=O)[C@H](CCc1ccccc1)NC(=O)[C@@H](NC(=O)OCc1ccccc1)CC(=O)N1CCC[C@H](CCO2)C1 [Compound 292, benzyl ((13R,9S,12S)-5^4-methyl-8,11,14-trioxo-9-phenethyl-4-oxa-7,10-diaza-1(3,1)-piperidina-5(1,3)-benzenacyclotetradecaphane-12-yl)carbamate]
